# Reference: ChEMBL document CHEMBL3045059, “Efficacy of ketoenols on insecticide resistant field populations of two-spotted spider mite Tetranychus urticae and sweet potato whitefly Bemisia tabaci from Greece” (2012)
# Columns and labels:
# Assay type in all cases: functional
# Tetranychus urticae [1] = assay: Acaricidal activity against adult Tetranychus urticae (two-spotted spider mite) greenhouse population TU7 in bean leaves assessed as mortality applied at 1 bar pressure measured after 48 hr; details: TU7, 48 h
# Tetranychus urticae [2] = assay: Acaricidal activity against adult Tetranychus urticae (two-spotted spider mite) greenhouse population TU11 in bean leaves assessed as mortality applied at 1 bar pressure measured after 48 hr; details: TU11, 48 h
# Tetranychus urticae [3] = assay: Acaricidal activity against adult Tetranychus urticae (two-spotted spider mite) greenhouse population TU9 in bean leaves assessed as mortality applied at 1 bar pressure measured after 48 hr; details: TU9, 48 h
# Tetranychus urticae [4] = assay: Acaricidal activity against adult Tetranychus urticae (two-spotted spider mite) field population TU4 in bean leaves assessed as mortality applied at 1 bar pressure measured after 48 hr; details: TU4, 48 h
# Tetranychus urticae [5] = assay: Acaricidal activity against adult Tetranychus urticae (two-spotted spider mite) greenhouse population TU3 in bean leaves assessed as mortality applied at 1 bar pressure measured after 48 hr; details: TU3, 48 h
# Tetranychus urticae [6] = assay: Acaricidal activity against adult Tetranychus urticae (two-spotted spider mite) field population TU12 in bean leaves assessed as mortality applied at 1 bar pressure measured after 48 hr; details: TU12, 48 h
# Tetranychus urticae [7] = assay: Acaricidal activity against adult Tetranychus urticae (two-spotted spider mite) greenhouse population TU5 in bean leaves assessed as mortality applied at 1 bar pressure measured after 48 hr; details: TU5, 48 h
# Tetranychus urticae [8] = assay: Acaricidal activity against adult Tetranychus urticae (two-spotted spider mite) field population TU2 in bean leaves assessed as mortality applied at 1 bar pressure measured after 48 hr; details: TU2, 48 h
# Tetranychus urticae [9] = assay: Acaricidal activity against adult Tetranychus urticae (two-spotted spider mite) field population TU6 in bean leaves assessed as mortality applied at 1 bar pressure measured after 48 hr; details: TU6, 48 h
# Tetranychus urticae [10] = assay: Acaricidal activity against adult Tetranychus urticae (two-spotted spider mite) greenhouse population TU1 in bean leaves assessed as mortality applied at 1 bar pressure measured after 48 hr; details: TU1, 48 h
# Tetranychus urticae [11] = assay: Acaricidal activity against adult Tetranychus urticae (two-spotted spider mite) laboratory strain GSS in bean leaves assessed as mortality applied at 1 bar pressure measured after 48 hr
# Tetranychus urticae [12] = assay: Acaricidal activity against adult Tetranychus urticae (two-spotted spider mite) laboratory strain SAMB in bean leaves assessed as mortality applied at 1 bar pressure measured after 48 hr
# Tetranychus urticae [13] = assay: Resistance ratio, ratio of LC50 for adult Tetranychus urticae (two-spotted spider mite) greenhouse population TU7 to LC50 for adult Tetranychus urticae laboratory strain SAMB measured after 48 hr
# Tetranychus urticae [14] = assay: Resistance ratio, ratio of LC50 for adult Tetranychus urticae (two-spotted spider mite) greenhouse population TU11 to LC50 for adult Tetranychus urticae laboratory strain SAMB measured after 48 hr
# Tetranychus urticae [15] = assay: Resistance ratio, ratio of LC50 for adult Tetranychus urticae (two-spotted spider mite) greenhouse population TU9 to LC50 for adult Tetranychus urticae laboratory strain SAMB measured after 48 hr
# Tetranychus urticae [16] = assay: Resistance ratio, ratio of LC50 for adult Tetranychus urticae (two-spotted spider mite) field population TU4 to LC50 for adult Tetranychus urticae laboratory strain SAMB measured after 48 hr
# Tetranychus urticae [17] = assay: Resistance ratio, ratio of LC50 for adult Tetranychus urticae (two-spotted spider mite) greenhouse population TU3 to LC50 for adult Tetranychus urticae laboratory strain SAMB measured after 48 hr
# Tetranychus urticae [18] = assay: Resistance ratio, ratio of LC50 for adult Tetranychus urticae (two-spotted spider mite) field population TU12 to LC50 for adult Tetranychus urticae laboratory strain SAMB measured after 48 hr
# Tetranychus urticae [19] = assay: Resistance ratio, ratio of LC50 for adult Tetranychus urticae (two-spotted spider mite) greenhouse population TU5 to LC50 for adult Tetranychus urticae laboratory strain SAMB measured after 48 hr
# Tetranychus urticae [20] = assay: Resistance ratio, ratio of LC50 for adult Tetranychus urticae (two-spotted spider mite) field population TU2 to LC50 for adult Tetranychus urticae laboratory strain SAMB measured after 48 hr
# Tetranychus urticae [21] = assay: Resistance ratio, ratio of LC50 for adult Tetranychus urticae (two-spotted spider mite) greenhouse population TU1 to LC50 for adult Tetranychus urticae laboratory strain SAMB measured after 48 hr
# Tetranychus urticae [22] = assay: Resistance ratio, ratio of LC50 for adult Tetranychus urticae (two-spotted spider mite) field population TU6 to LC50 for adult Tetranychus urticae laboratory strain SAMB measured after 48 hr
# Tetranychus urticae [23] = assay: Resistance ratio, ratio of LC50 for adult Tetranychus urticae (two-spotted spider mite) laboratory strain GSS to LC50 for adult Tetranychus urticae laboratory strain SAMB measured after 48 hr
# Tetranychus urticae [24] = assay: Acaricidal activity against adult Tetranychus urticae (two-spotted spider mite) field population TU6 in bean leaves assessed as mortality applied at 1 bar pressure measured after 24 hr; details: TU6, 24 h
# Tetranychus urticae [25] = assay: Acaricidal activity against adult Tetranychus urticae (two-spotted spider mite) laboratory strain GSS in bean leaves assessed as mortality applied at 1 bar pressure measured after 24 hr
# Tetranychus urticae [26] = assay: Acaricidal activity against adult Tetranychus urticae (two-spotted spider mite) laboratory strain SAMB in bean leaves assessed as mortality applied at 1 bar pressure measured after 24 hr
# Tetranychus urticae [27] = assay: Resistance ratio, ratio of LC50 for adult Tetranychus urticae (two-spotted spider mite) greenhouse population TU7 to LC50 for adult Tetranychus urticae laboratory strain SAMB measured after 24 hr
# Tetranychus urticae [28] = assay: Resistance ratio, ratio of LC50 for adult Tetranychus urticae (two-spotted spider mite) greenhouse population TU11 to LC50 for adult Tetranychus urticae laboratory strain SAMB measured after 24 hr
# Tetranychus urticae [29] = assay: Resistance ratio, ratio of LC50 for adult Tetranychus urticae (two-spotted spider mite) greenhouse population TU9 to LC50 for adult Tetranychus urticae laboratory strain SAMB measured after 24 hr
# Tetranychus urticae [30] = assay: Resistance ratio, ratio of LC50 for adult Tetranychus urticae (two-spotted spider mite) field population TU4 to LC50 for adult Tetranychus urticae laboratory strain SAMB measured after 24 hr
# Tetranychus urticae [31] = assay: Resistance ratio, ratio of LC50 for adult Tetranychus urticae (two-spotted spider mite) greenhouse population TU3 to LC50 for adult Tetranychus urticae laboratory strain SAMB measured after 24 hr
# Tetranychus urticae [32] = assay: Resistance ratio, ratio of LC50 for adult Tetranychus urticae (two-spotted spider mite) field population TU12 to LC50 for adult Tetranychus urticae laboratory strain SAMB measured after 24 hr
# Tetranychus urticae [33] = assay: Resistance ratio, ratio of LC50 for adult Tetranychus urticae (two-spotted spider mite) greenhouse population TU5 to LC50 for adult Tetranychus urticae laboratory strain SAMB measured after 24 hr
# Tetranychus urticae [34] = assay: Resistance ratio, ratio of LC50 for adult Tetranychus urticae (two-spotted spider mite) field population TU2 to LC50 for adult Tetranychus urticae laboratory strain SAMB measured after 24 hr
# Tetranychus urticae [35] = assay: Resistance ratio, ratio of LC50 for adult Tetranychus urticae (two-spotted spider mite) greenhouse population TU1 to LC50 for adult Tetranychus urticae laboratory strain SAMB measured after 24 hr
# Tetranychus urticae [36] = assay: Resistance ratio, ratio of LC50 for adult Tetranychus urticae (two-spotted spider mite) field population TU6 to LC50 for adult Tetranychus urticae laboratory strain SAMB measured after 24 hr
# Tetranychus urticae [37] = assay: Resistance ratio, ratio of LC50 for adult Tetranychus urticae (two-spotted spider mite) laboratory strain GSS to LC50 for adult Tetranychus urticae laboratory strain SAMB measured after 24 hr
# Tetranychus urticae [38] = assay: Acaricidal activity against adult Tetranychus urticae (two-spotted spider mite) greenhouse population TU7 in bean leaves assessed as mortality applied at 1 bar pressure measured after 24 hr; details: TU7, 24 h
# Tetranychus urticae [39] = assay: Acaricidal activity against adult Tetranychus urticae (two-spotted spider mite) greenhouse population TU11 in bean leaves assessed as mortality applied at 1 bar pressure measured after 24 hr; details: TU11, 24 h
# Tetranychus urticae [40] = assay: Acaricidal activity against adult Tetranychus urticae (two-spotted spider mite) greenhouse population TU9 in bean leaves assessed as mortality applied at 1 bar pressure measured after 24 hr; details: TU9, 24 h
# Tetranychus urticae [41] = assay: Acaricidal activity against adult Tetranychus urticae (two-spotted spider mite) field population TU4 in bean leaves assessed as mortality applied at 1 bar pressure measured after 24 hr; details: TU4, 24 h
# Tetranychus urticae [42] = assay: Acaricidal activity against adult Tetranychus urticae (two-spotted spider mite) greenhouse population TU3 in bean leaves assessed as mortality applied at 1 bar pressure measured after 24 hr; details: TU3, 24 h
# Tetranychus urticae [43] = assay: Acaricidal activity against adult Tetranychus urticae (two-spotted spider mite) field population TU12 in bean leaves assessed as mortality applied at 1 bar pressure measured after 24 hr; details: TU12, 24 h
# Tetranychus urticae [44] = assay: Acaricidal activity against adult Tetranychus urticae (two-spotted spider mite) greenhouse population TU5 in bean leaves assessed as mortality applied at 1 bar pressure measured after 24 hr; details: TU5, 24 h
# Tetranychus urticae [45] = assay: Acaricidal activity against adult Tetranychus urticae (two-spotted spider mite) field population TU2 in bean leaves assessed as mortality applied at 1 bar pressure measured after 24 hr; details: TU2, 24 h
# Tetranychus urticae [46] = assay: Acaricidal activity against adult Tetranychus urticae (two-spotted spider mite) greenhouse population TU1 in bean leaves assessed as mortality applied at 1 bar pressure measured after 24 hr; details: TU1, 24 h
smiles,measurement,setting,value
Cc1c(COC(=O)[C@@H]2[C@H](/C=C(\Cl)C(F)(F)F)C2(C)C)cccc1-c1ccccc1 (relative stereo) [BIFENTHRIN],LC50,Tetranychus urticae [1],75100 µg/mL
same,LC50,Tetranychus urticae [2],168 µg/mL
same,LC50,Tetranychus urticae [3],112 µg/mL
same,LC50,Tetranychus urticae [4],3140 µg/mL
same,LC50,Tetranychus urticae [5],741 µg/mL
same,LC50,Tetranychus urticae [6],85 µg/mL
same,LC50,Tetranychus urticae [7],45 µg/mL
same,LC50,Tetranychus urticae [8],42 µg/mL
same,LC50,Tetranychus urticae [9],8.5 µg/mL
same,LC50,Tetranychus urticae [10],115 µg/mL
same,LC50,Tetranychus urticae [11],13 µg/mL
same,LC50,Tetranychus urticae [12],8.9 µg/mL
same,RatioLC50,Tetranychus urticae [13],8413
same,RatioLC50,Tetranychus urticae [14],19
same,RatioLC50,Tetranychus urticae [15],12
same,RatioLC50,Tetranychus urticae [16],351
same,RatioLC50,Tetranychus urticae [17],83
same,RatioLC50,Tetranychus urticae [18],9.5
same,RatioLC50,Tetranychus urticae [19],5
same,RatioLC50,Tetranychus urticae [20],4.7
same,RatioLC50,Tetranychus urticae [21],13
same,RatioLC50,Tetranychus urticae [22],0.9
same,RatioLC50,Tetranychus urticae [23],1.5
CC(C)(C)c1ccc(CCOc2ncnc3ccccc23)cc1 [FENAZAQUIN],LC50,Tetranychus urticae [24],29 µg/mL
same,LC50,Tetranychus urticae [25],17 µg/mL
same,LC50,Tetranychus urticae [26],13 µg/mL
same,RatioLC50,Tetranychus urticae [27],33
same,RatioLC50,Tetranychus urticae [28],42
same,RatioLC50,Tetranychus urticae [29],23
same,RatioLC50,Tetranychus urticae [30],4.1
same,RatioLC50,Tetranychus urticae [31],5.7
same,RatioLC50,Tetranychus urticae [32],15
same,RatioLC50,Tetranychus urticae [33],3.7
same,RatioLC50,Tetranychus urticae [34],7.3
same,RatioLC50,Tetranychus urticae [35],13
same,RatioLC50,Tetranychus urticae [36],2.2
same,RatioLC50,Tetranychus urticae [37],1.3
same,LC50,Tetranychus urticae [38],447 µg/mL
same,LC50,Tetranychus urticae [39],562 µg/mL
same,LC50,Tetranychus urticae [40],316 µg/mL
same,LC50,Tetranychus urticae [41],55 µg/mL
same,LC50,Tetranychus urticae [42],77 µg/mL
same,LC50,Tetranychus urticae [43],215 µg/mL
same,LC50,Tetranychus urticae [44],49 µg/mL
same,LC50,Tetranychus urticae [45],97 µg/mL
same,LC50,Tetranychus urticae [46],179 µg/mL
CCN(CC)c1nc(C)cc(OP(=S)(OC)OC)n1 [PIRIMIPHOS METHYL],LC50,Tetranychus urticae [1],1330 µg/mL
same,LC50,Tetranychus urticae [2],417 µg/mL
same,LC50,Tetranychus urticae [3],248 µg/mL
same,LC50,Tetranychus urticae [4],98 µg/mL
same,LC50,Tetranychus urticae [5],130 µg/mL
same,LC50,Tetranychus urticae [6],77 µg/mL
same,LC50,Tetranychus urticae [7],204 µg/mL
same,LC50,Tetranychus urticae [8],225 µg/mL
same,LC50,Tetranychus urticae [9],158 µg/mL
same,LC50,Tetranychus urticae [10],248 µg/mL
same,LC50,Tetranychus urticae [11],332 µg/mL
same,LC50,Tetranychus urticae [12],18 µg/mL
same,RatioLC50,Tetranychus urticae [13],74
same,RatioLC50,Tetranychus urticae [14],23
same,RatioLC50,Tetranychus urticae [15],14
same,RatioLC50,Tetranychus urticae [16],5.5
same,RatioLC50,Tetranychus urticae [17],7.3
same,RatioLC50,Tetranychus urticae [18],4.3
same,RatioLC50,Tetranychus urticae [19],11
same,RatioLC50,Tetranychus urticae [20],12
same,RatioLC50,Tetranychus urticae [21],14
same,RatioLC50,Tetranychus urticae [22],8.9
same,RatioLC50,Tetranychus urticae [23],19
CC(C)(C)c1ccc(CSc2cnn(C(C)(C)C)c(=O)c2Cl)cc1 [PYRIDABEN],LC50,Tetranychus urticae [24],16 µg/mL
same,LC50,Tetranychus urticae [25],4.4 µg/mL
same,LC50,Tetranychus urticae [26],6.4 µg/mL
same,RatioLC50,Tetranychus urticae [27],34
same,RatioLC50,Tetranychus urticae [28],39
same,RatioLC50,Tetranychus urticae [29],26
same,RatioLC50,Tetranychus urticae [30],4
same,RatioLC50,Tetranychus urticae [31],18
same,RatioLC50,Tetranychus urticae [32],9.8
same,RatioLC50,Tetranychus urticae [33],5.9
same,RatioLC50,Tetranychus urticae [34],11
same,RatioLC50,Tetranychus urticae [35],4.5
same,RatioLC50,Tetranychus urticae [36],2.6
same,RatioLC50,Tetranychus urticae [37],0.7
same,LC50,Tetranychus urticae [38],221 µg/mL
same,LC50,Tetranychus urticae [39],248 µg/mL
same,LC50,Tetranychus urticae [40],166 µg/mL
same,LC50,Tetranychus urticae [41],26 µg/mL
same,LC50,Tetranychus urticae [42],117 µg/mL
same,LC50,Tetranychus urticae [43],62 µg/mL
same,LC50,Tetranychus urticae [44],38 µg/mL
same,LC50,Tetranychus urticae [45],71 µg/mL
same,LC50,Tetranychus urticae [46],29 µg/mL
